The test system of this data set is activated partial thromboplastin time (APTT). Nature of the data set: In vivo activity in cynomolgus monkeys, activated partial thromboplastin time in plasma. Particulars: cynomolgus monkey plasma, subcutaneous once, 14 mg/kg (second row, dose by order of Table 17). The procedure:
On day 7 before administration, female cynomolgus monkeys weighing 2-4 kg were fasted overnight, and about 1 mL of blood was collected from the femoral vein. Plasma was collected by centrifugation. FXI protein (Human Coagulation Factor XI ELISAkit, Thermo, Cat. No. EH118RB), FXI activity (coagulation factor XI assay kit, Stago, Cat. No. 00723), and APTT (activated partial thromboplastin time assay kit, Stago, Cat. No. 00595) were measured. The monkeys were evenly divided into groups based on these indicators. On day 0, the dsRNA ligand conjugates of the present application (TD02M02L01, etc.) were injected. On day 0, day 3, day 7, day 14, day 21, day 28, day 37, day 54, and day 68, plasma was collected to measure plasma FXI protein, FXI activity, and activated partial thromboplastin time (APTT).
The activated partial thromboplastin time prolongation rate was calculated according to the following equation: [formula]
The content of the coagulation factor XI protein, the FXI activity, and the activated partial thromboplastin time in animal plasma were measured before and on day 0, day 3, day 7, day 14, day 21, day 28, day 37, day 54, and day 68 after the subcutaneous administration of the dsRNA ligand conjugates of the present application at doses of 4.2 mg/kg and 14 mg/kg to cynomolgus monkeys (Table 17). […] Table 17. In vivo experimental design

In the case of “TD02M02L01: dsRNA ligand conjugate: TD02M02 with L01 (GalNAc) ligand at 3' end of sense strand SEQ ID NO 35; antisense SEQ ID NO 36 (sense GGATGATTTTCTTATATCA; antisense TGATATAAGAAAATCATCCTG; GalNAc L01 ligand at sense 3' end, 2'-OMe/2'-F, pattern not given here)”, the “Relative prolongation rate (%) of APTT” value is, setting by setting: (D3) 6.0%; (D7) 25.2%; (D14) 60.9%; (D21) 116.0%; (D28) 70.6%; (D37) 100.3%. In addition, the “Relative prolongation rate (%) of APTT” value reads like this: (D54) 124.4%; (D68) 132.4%.
